US6706663B2, “Herbicidal 3-heterocyclic substituted benzisothiazole and benzisoxazole compounds” (Wyeth, priority 2000, dated 2004)

Tests used:
[1] = tested on: ABUTH (Abutilon theophrasti); test: Postemergence herbicidal evaluation; type: in vivo, Medic.; details: postemergence
How it was run: (§1)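 Visual 0–9 injury scores versus control plants, covering stand, vigour, malformation, size, chlorosis and general appearance, taken four to five weeks post-spray and averaged over replicate tests. Plants were sprayed at roughly two weeks old and held on greenhouse benches.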

[2] = tested on: AMBEL (Ambrosia artemisifolia); test: Postemergence herbicidal evaluation; type: in vivo, L.; details: postemergence
How it was run: as §1

[3] = tested on: CASOB (Cassia obtusifolia); test: Postemergence herbicidal evaluation; type: in vivo, L.; details: postemergence
How it was run: as §1

[4] = tested on: CHEAL (Chenopodium album); test: Postemergence herbicidal evaluation; type: in vivo, L.; details: postemergence
How it was run: as §1

[5] = tested on: GALAP (Galium aparine); test: Postemergence herbicidal evaluation; type: in vivo; details: postemergence
How it was run: as §1

[6] = tested on: IPOHE (Ipomoea hederacea); test: Postemergence herbicidal evaluation; type: in vivo, (L.) Jacq.; details: postemergence
How it was run: as §1

[7] = tested on: GLXMAW (Soybean, Williams); test: Postemergence herbicidal evaluation; type: in vivo, Glycine max, (L.) Merr. cv Williams; details: postemergence
How it was run: as §1

[8] = tested on: ORYSAT (Rice, Tebonnet); test: Postemergence herbicidal evaluation; type: in vivo, Oryza sativa, (L.) Tebonnet; details: postemergence
How it was run: as §1

[9] = tested on: ZEAMX (Corn, Field); test: Postemergence herbicidal evaluation; type: in vivo, Zea mays, L.; details: postemergence
How it was run: as §1

[10] = tested on: GALAP (Galium aparine); test: Preemergence herbicidal evaluation; type: in vivo; details: rated 4-5 weeks after treatment
How it was run: (§2)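 Steps: mix seeds with potting soil; plant on ~1 inch soil per cup; spray compound in aqueous acetone; hold on greenhouse benches with routine watering; rate 0–9 visually against control at 4–5 weeks.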

[11] = tested on: ECHCG (Echinochloa crus-galli); test: Preemergence herbicidal evaluation; type: in vivo, (L.) Beau; details: rated 4-5 weeks after treatment
How it was run: as §2

[12] = tested on: SETVI (Setaria viridis); test: Preemergence herbicidal evaluation; type: in vivo, (L.) Beau; details: rated 4-5 weeks after treatment
How it was run: as §2

[13] = tested on: ORYSAT (Rice, Tebonnet); test: Preemergence herbicidal evaluation; type: in vivo, Oryza sativa, (L.) Tebonnet; details: rated 4-5 weeks after treatment
[14] = tested on: TRZAWR (Wheat, Winter, cv Riband); test: Preemergence herbicidal evaluation; type: in vivo, Triticum aestivum; details: rated 4-5 weeks after treatment
How it was run: as §2

Structure (SMILES)	ABUTH herbicidal rating ([1]; rate 0.0320 kg/ha)	ABUTH herbicidal rating ([1]; rate 0.0620 kg/ha)	AMBEL herbicidal rating ([2]; rate 0.0320 kg/ha)	AMBEL herbicidal rating ([2]; rate 0.0620 kg/ha)	CASOB herbicidal rating ([3]; rate 0.0320 kg/ha)	CASOB herbicidal rating ([3]; rate 0.0620 kg/ha)	CHEAL herbicidal rating ([4]; rate 0.0320 kg/ha)	CHEAL herbicidal rating ([4]; rate 0.0620 kg/ha)	GALAP herbicidal rating ([5]; rate 0.0320 kg/ha)	GALAP herbicidal rating ([5]; rate 0.0620 kg/ha)	IPOHE herbicidal rating ([6]; rate 0.0320 kg/ha)	IPOHE herbicidal rating ([6]; rate 0.0620 kg/ha)	GLXMAW herbicidal rating ([7]; rate 0.0320 kg/ha)	GLXMAW herbicidal rating ([7]; rate 0.0620 kg/ha)	ORYSAT herbicidal rating ([8]; rate 0.0320 kg/ha)	ORYSAT herbicidal rating ([8]; rate 0.0620 kg/ha)	ZEAMX herbicidal rating ([9]; rate 0.0320 kg/ha)	ZEAMX herbicidal rating ([9]; rate 0.0620 kg/ha)	Preemergence herbicidal rating GALAP ([10]; Rate 0.0620 kg/ha)	Preemergence herbicidal rating GALAP ([10]; Rate 0.1250 kg/ha)	other results
Cn1c(C(F)(F)F)cc(=O)n(-c2cc3c(C4OCCCO4)nsc3cc2F)c1=O [Compound 62, 3-(3-m-dioxan-2-yl-6-fluoro-1,2-benzisothiazol-5-yl)-1-methyl-6-(trifluoromethyl)uracil]	9.0	9.0	9.0	9.0	9.0	9.0	9.0	9.0	9.0	9.0	9.0	9.0	9.0	9.0	6.0	6.0	6.0	7.0	9.0	9.0	Preemergence herbicidal rating GALAP ([10]; Rate 0.2500 kg/ha): 9.0; Preemergence herbicidal rating ECHCG ([11]; Rate 0.0620 kg/ha): 9.0; Preemergence herbicidal rating ECHCG ([11]; Rate 0.1250 kg/ha): 9.0; Preemergence herbicidal rating ECHCG ([11]; Rate 0.2500 kg/ha): 9.0; Preemergence herbicidal rating SETVI ([12]; Rate 0.0620 kg/ha): 9.0; Preemergence herbicidal rating SETVI ([12]; Rate 0.1250 kg/ha): 9.0; Preemergence herbicidal rating SETVI ([12]; Rate 0.2500 kg/ha): 9.0; Preemergence herbicidal rating ORYSAT ([13]; Rate 0.0620 kg/ha): 9.0; Preemergence herbicidal rating ORYSAT ([13]; Rate 0.1250 kg/ha): 9.0; Preemergence herbicidal rating ORYSAT ([13]; Rate 0.2500 kg/ha): 9.0; Preemergence herbicidal rating TRZAWR ([14]; Rate 0.0620 kg/ha): 9.0; Preemergence herbicidal rating TRZAWR ([14]; Rate 0.1250 kg/ha): 9.0; Preemergence herbicidal rating TRZAWR ([14]; Rate 0.2500 kg/ha): 9.0
COCC1COC(c2nsc3ccc(-n4c(=O)cc(C(F)(F)F)n(C)c4=O)cc23)O1 (stereo not shown) [Compound 64, 3-[3-[4-(methoxymethyl)-1,3-dioxolan-2-yl]-1,2-benzisothiazol-5-yl]-1-methyl-6-(trifluoromethyl)uracil]	9.0	9.0	9.0	9.0	4.0	5.0	9.0	9.0	9.0	9.0	9.0	9.0	7.0	8.5	5.0	5.5	5.5	5.5	9.0	9.0	Preemergence herbicidal rating GALAP ([10]; Rate 0.2500 kg/ha): 9.0; Preemergence herbicidal rating ECHCG ([11]; Rate 0.0620 kg/ha): 9.0; Preemergence herbicidal rating ECHCG ([11]; Rate 0.1250 kg/ha): 9.0; Preemergence herbicidal rating ECHCG ([11]; Rate 0.2500 kg/ha): 9.0; Preemergence herbicidal rating SETVI ([12]; Rate 0.0620 kg/ha): 9.0; Preemergence herbicidal rating SETVI ([12]; Rate 0.1250 kg/ha): 9.0; Preemergence herbicidal rating SETVI ([12]; Rate 0.2500 kg/ha): 9.0; Preemergence herbicidal rating ORYSAT ([13]; Rate 0.0620 kg/ha): 8.5; Preemergence herbicidal rating ORYSAT ([13]; Rate 0.1250 kg/ha): 9.0; Preemergence herbicidal rating ORYSAT ([13]; Rate 0.2500 kg/ha): 9.0; Preemergence herbicidal rating TRZAWR ([14]; Rate 0.0620 kg/ha): 9.0; Preemergence herbicidal rating TRZAWR ([14]; Rate 0.1250 kg/ha): 9.0; Preemergence herbicidal rating TRZAWR ([14]; Rate 0.2500 kg/ha): 9.0
CC1=CC(C)(C)OC(c2nsc3ccc(-n4c(=O)cc(C(F)(F)F)n(C)c4=O)cc23)C1 (stereo not shown) [Compound 65, 3-[3-(3,6-dihydro-4,6,6-trimethyl-2H-pyran-2-yl)-1,2-benzisothiazol-5-yl]-1-methyl-6-(trifluoromethyl)uracil]	9.0	9.0	9.0	9.0	4.0	5.0	7.0	9.0	5.0	6.0	9.0	9.0	5.5	7.0	4.0	4.5	5.0	5.5	5.0	7.0	Preemergence herbicidal rating GALAP ([10]; Rate 0.2500 kg/ha): 7.0; Preemergence herbicidal rating ECHCG ([11]; Rate 0.0620 kg/ha): 9.0; Preemergence herbicidal rating ECHCG ([11]; Rate 0.1250 kg/ha): 9.0; Preemergence herbicidal rating ECHCG ([11]; Rate 0.2500 kg/ha): 9.0; Preemergence herbicidal rating SETVI ([12]; Rate 0.0620 kg/ha): 9.0; Preemergence herbicidal rating SETVI ([12]; Rate 0.1250 kg/ha): 9.0; Preemergence herbicidal rating SETVI ([12]; Rate 0.2500 kg/ha): 9.0; Preemergence herbicidal rating ORYSAT ([13]; Rate 0.0620 kg/ha): 7.0; Preemergence herbicidal rating ORYSAT ([13]; Rate 0.1250 kg/ha): 7.0; Preemergence herbicidal rating ORYSAT ([13]; Rate 0.2500 kg/ha): 9.0; Preemergence herbicidal rating TRZAWR ([14]; Rate 0.0620 kg/ha): 5.0; Preemergence herbicidal rating TRZAWR ([14]; Rate 0.1250 kg/ha): 7.0; Preemergence herbicidal rating TRZAWR ([14]; Rate 0.2500 kg/ha): 9.0
C[C@@H]1C[C@H](C)OC(c2nsc3cc(F)c(-n4c(=O)cc(C(F)(F)F)n(C)c4=O)cc23)O1 (stereo partly drawn) [Compound 67, 3-[3-[(4R,6S)-4,6-dimethyl-m-dioxan-2-yl]-6-fluoro-1,2-benzisothiazol-5-yl]-1-methyl-6-(trifluoromethyl)uracil]	9.0	9.0	9.0	9.0	9.0	9.0	9.0	9.0	6.0	5.0	9.0	9.0	9.0	9.0	4.5	5.5	5.5	6.0	8.0	9.0	Preemergence herbicidal rating ECHCG ([11]; Rate 0.0620 kg/ha): 9.0; Preemergence herbicidal rating ECHCG ([11]; Rate 0.1250 kg/ha): 9.0; Preemergence herbicidal rating SETVI ([12]; Rate 0.0620 kg/ha): 9.0; Preemergence herbicidal rating SETVI ([12]; Rate 0.1250 kg/ha): 9.0; Preemergence herbicidal rating ORYSAT ([13]; Rate 0.0620 kg/ha): 9.0; Preemergence herbicidal rating ORYSAT ([13]; Rate 0.1250 kg/ha): 9.0; Preemergence herbicidal rating TRZAWR ([14]; Rate 0.0620 kg/ha): 9.0; Preemergence herbicidal rating TRZAWR ([14]; Rate 0.1250 kg/ha): 9.0
